Data published in the supplement of paper PMC6045584.
± gives the standard deviation of the averaged measurements.

What was measured:
[1] = compound: COc1ccc(-c2cc3c(C)nc(N)nc3n([C@H]3CC[C@H](OCCO)CC3)c2=O)cn1; assay: surviving fraction relative to DMSO-only wells; higher = less growth inhibition; details: exposure time: 5 days
Method in brief: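 In 384-well plates, 250–500 log-phase tumour cells per well were given 24 hours before five days of continuous exposure to inhibitors at 0.5, 1, 5, 10, 50, 100, 500 and 1000 nM. Surviving fraction is luminescence from CellTiter-Glo, normalised to the median of wells containing DMSO alone. Reading took place after 10 minutes at room temperature.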

MK-1775 = compound: C=CCn1c(=O)c2cnc(Nc3ccc(N4CCN(C)CC4)cc3)nc2n1-c1cccc(C(C)(C)O)n1 [MK-1775]; assay: area under dose-response curve of surviving fraction (unscaled, Aref=0) (surviving fraction x log10(nM)); higher = more resistant; details: exposure time: 5 days; dose range 0.5-1000 nM
Method in brief: (§1)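 Surviving fractions were fitted by 3-parameter logistic regression in the drc R package to give dose-response survival curves. They came from tumour cell lines treated for five days with eight inhibitor concentrations from 0.5 to 1000 nM and read by CellTiter-Glo luminescence against DMSO-only wells. The area under the curve is the unscaled activity area. It was calculated over log10 dose with Aref = 0.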

BEZ-235 = compound: Cn1c(=O)n(-c2ccc(C(C)(C)C#N)cc2)c2c3cc(-c4cnc5ccccc5c4)ccc3ncc21 [BEZ-235]; assay: as above; details: exposure time: 5 days; dose range 0.5-1000 nM
Method in brief: as §1

BLEOMYCIN = compound: Cc1c(N)nc([C@H](CC(N)=O)NC[C@H](N)C(N)=O)nc1C(=O)N[C@H](C(=O)N[C@H](C)[C@@H](O)[C@H](C)C(=O)N[C@H](C(=O)NCCc1nc(-c2nc(C(=O)NCCC[S+](C)C)cs2)cs1)[C@@H](C)O)[C@@H](OC1OC(CO)C(O)C(O)C1OC1OC(CO)C(O)C(OC(N)=O)C1O)c1cnc[nH]1 [BLEOMYCIN]; assay: as above; details: exposure time: 5 days; dose range 0.5-1000 nM
Method in brief: as §1

LENVATINIB = compound: COc1cc2nccc(Oc3ccc(NC(=O)NC4CC4)c(Cl)c3)c2cc1C(N)=O [LENVATINIB]; assay: as above; details: exposure time: 5 days; dose range 0.5-1000 nM
Method in brief: as §1

[2] = compound: COc1ccc(-c2cc3c(C)nc(N)nc3n([C@H]3CC[C@H](OCCO)CC3)c2=O)cn1; assay: as above; details: exposure time: 5 days; dose range 0.5-1000 nM
Method in brief: as §1

[3] = compound: CCc1cc(Nc2nccc(-c3c(-c4ccc(OC)c(C(=O)Nc5c(F)cccc5F)c4)nc4ccccn34)n2)c(OC)cc1N1CCC(N2CCN(S(C)(=O)=O)CC2)CC1; assay: as above; details: exposure time: 5 days; dose range 0.5-1000 nM
Method in brief: as §1

VORINOSTAT = compound: O=C(CCCCCCC(=O)Nc1ccccc1)NO [VORINOSTAT]; assay: as above; details: exposure time: 5 days; dose range 0.5-1000 nM
Method in brief: as §1

[4] = compound: C[C@@H]1CN(CC(=O)Nc2ccc3c(c2)Cc2cccc(-c4cc(=O)cc(N5CCOCC5)o4)c2S3)C[C@H](C)O1; assay: as above; details: exposure time: 5 days; dose range 0.5-1000 nM
Method in brief: as §1

| Test System | surviving fraction ([1]; 0.5 nM) | surviving fraction ([1]; 1 nM) | surviving fraction ([1]; 5 nM) | surviving fraction ([1]; 10 nM) | surviving fraction ([1]; 50 nM) | surviving fraction ([1]; 100 nM) | surviving fraction ([1]; 500 nM) | surviving fraction ([1]; 1000 nM) | area under dose-response curve (MK-1775) | area under dose-response curve (BEZ-235) | area under dose-response curve (BLEOMYCIN) | area under dose-response curve (LENVATINIB) | area under dose-response curve [2] | area under dose-response curve [3] | area under dose-response curve (VORINOSTAT) | area under dose-response curve [4] |
| --- | --- | --- | --- | --- | --- | --- | --- | --- | --- | --- | --- | --- | --- | --- | --- | --- |
| G292 BONE | 0.951 ± 0.026 | 0.971 ± 0.037 | 0.853 ± 0.042 | 0.78 ± 0.011 | 0.422 ± 0.027 | 0.305 ± 0.013 | 0.124 ± 0.003 | 0.0955 ± 0.001 | 2.71 | 2.18 | 2.07 | 2.62 | 1.89 | 3.33 | 3.05 | 3.2 |
| HCC38 BREAST | 0.974 ± 0.14 | 1.13 ± 0.17 | 1.21 ± 0.02 | 1.08 ± 0.069 | 1.14 ± 0.14 | 1.01 ± 0.34 | 0.409 ± 0.083 | 0.223 ± 0.046 | 2.33 | 2.59 | 2.44 | 3.98 | 2.96 |  | 4 | 2.58 |
| HCC70 BREAST | 1.01 ± 0.091 | 1.02 ± 0.092 | 1.06 ± 0.097 | 0.98 ± 0.026 | 0.623 ± 0.051 | 0.346 ± 0.011 | 0.111 ± 0.036 | 0.056 ± 0.0061 | 2.24 | 2.57 | 2.77 | 3.79 | 2.19 | 3.48 | 3.13 | 3.65 |
